How the values were obtained:
[1] = Test 1: Solution Stability Test; assay type: physicochemical; details: 37° C., one hour, about 50 μg/mL; for Compound's percent residue (%) pH 6.5: 20 mM phosphate buffer (pH 6.5); for Compound's percent residue (%) pH 1.2: hydrochloric acid solution (pH 1.2)
Protocol: Inventive Compounds (I) were tested for their stability in solutions simulating the gastric and small intestine's digestive fluids identified below.
The percent residues of Inventive Compounds (I) in a hydrochloric acid solution (pH 1.2) and 20 mM phosphate buffer (pH 6.5) were measured in accordance with the following test method.
A test compound was dissolved in a hydrochloric acid solution (pH 1.2) containing hydrochloric acid and sodium chloride or a 20 mM phosphate buffer (pH 6.5) containing disodium hydrogenphosphate, sodium dihydrogenphosphate and sodium chloride to prepare a solution with a concentration of about 50 μg/mL (near the solubility if undissolved). The solution was incubated at 37° C. for an hour and the compound's concentration before and after the incubation was quantified by high-performance liquid chromatography to calculate the percent residue of the compound.

[2] = Test 4: percent generation of Compound (IV) in human small intestine S9; assay type: in vitro ADME; details: 3 μM, 1 mg protein/mL, 37° C. x 1 hr
Protocol: A test to determine the percent generation of Compound (IV) in human intestine S9 was conducted for Inventive Compounds (I) in accordance with the following method.
Inventive Compounds were incubated (37° C.×1 hr) in a 0.1 M phosphate buffer (pH 7.4) together with a human intestine S9 fraction (Xenotech, LLC/CP710571/Lot, 710571) in the presence of Mg^2+ (5 mM), Ca^2+ (5 mM) and Zn^2+ (0.1 mM). The final concentrations of each Inventive Compound and the small intestine S9 protein were adjusted to 3 μM and 1 mg protein/mL, respectively. To the incubated reaction mixture, 3 volumes of DMSO was added, followed by stirring and centrifugation at 3000 rpm (4° C.×10 min). The resulting supernatant was subjected to analysis by a liquid chromatography-tandem mass spectrometry (LC-MS/MS) system. The lower quantitation limit was 0.3 μM for both Inventive Compounds (I) and Compound (IV).
The LC-MS/MS system used in the measurement was equipped with Waters XBridge Amide (3.5 μm, 50 mm×4.6 mm I.D.), Waters Atlantis T3 (3 μm, 50 mm×4.6 mm I.D.), or Shimadzu Shim-pack XR-ODS (2.2 μm, 30 mm×3.0 mm I.D.) as a separation column. The mobile phase was a 0.1% formic acid/acetonitrile solution or a 0.1% formic acid/methanol solution (flow rate: 0.7-1.3 mL/min) and the analyte was eluted in a linear gradient mode. MS/MS detection of Inventive Compounds (I) and Compound (IV) was performed using an API4000 or Triple quad 5500 system with TurbolonSpray interface (both being products of AB SCIEX) in either a positive or negative ion detection mode. The percent generation of Compound (IV) in human small intestine S9 is shown in the following Table 6 with respect to Inventive Compounds.

SMILES	Compound's percent residue (%) pH 6.5 [1]	Compound's percent residue (%) pH 1.2 [1]	Percent generation (%) of Compound IV in human small intestine S9 [2]
CC(C)COC(C)OC(=O)[C@H]1[C@@H]2C[C@H](F)[C@@](N)(C(=O)O)[C@@H]21.Cl (stereo partly drawn) [Ex. A-8, (1S,2S,3S,5R,6S)-2-amino-3-fluoro-6-((1-(isobutyloxy)ethoxy)carbonyl)bicyclo[3.1.0]hexane-2-carboxylic acid hydrochloride]	101%	100%	
Cc1oc(=O)oc1COC(=O)[C@H]1[C@@H]2C[C@H](F)[C@@](N)(C(=O)O)[C@@H]21 [Ex. A-16, (1S,2S,3S,5R,6S)-2-amino-3-fluoro-6-(((5-methyl-2-oxo-1,3-dioxol-4-yl)methoxy)carbonyl)bicyclo[3.1.0]hexane-2-carboxylic acid]	98%	99%	
CC(C)OC(=O)OC(C)OC(=O)[C@H]1[C@@H]2C[C@H](F)[C@@](N)(C(=O)O)[C@@H]21.O=C(O)C(F)(F)F (stereo partly drawn) [Ex. A-15, (1S,2S,3S,5R,6S)-2-amino-3-fluoro-6-((1-((isopropyloxycarbonyl)oxy)ethoxy)carbonyl)bicyclo[3.1.0]hexane-2-carboxylic acid trifluoroacetate]	101%	102%	
CC(C)[C@@H]1CC[C@@H](C)C[C@H]1OC(=O)OCOC(=O)[C@H]1[C@@H]2C[C@H](F)[C@@](N)(C(=O)O)[C@@H]21 [Ex. A-4, (1S,2S,3S,5R,6S)-2-amino-3-fluoro-6-(((((((1R,2S,5R)-2-isopropyl-5-methylcyclohexyl)oxy)carbonyl)oxy)methoxy)carbonyl)bicyclo[3.1.0]hexane-2-carboxylic acid]	98%	99%	
Cl.N[C@]1(C(=O)O)[C@H]2[C@@H](C[C@@H]1F)[C@@H]2C(=O)OC1OC(=O)c2ccccc21 (stereo partly drawn) [Ex. A-17, (1S,2S,3S,5R,6S)-2-amino-3-fluorobicyclo[3.1.0]hexane-2,6-dicarboxylic acid 6-(3-phthalidyl) ester hydrochloride]	97%	99%	
CC(OC(=O)[C@H]1[C@@H]2C[C@H](F)[C@@](N)(C(=O)O)[C@@H]21)OC(=O)C12CC3CC(CC(C3)C1)C2 (stereo partly drawn) [Ex. A-2, (1S,2S,3S,5R,6S)-6-(1-((adamantane-1-carbonyl)oxy)ethoxy)carbonyl-2-amino-3-fluorobicyclo[3.1.0]hexane-2-carboxylic acid]	101%	101%	
CC(OC(=O)OC12CC3CC(CC(C3)C1)C2)OC(=O)[C@H]1[C@@H]2C[C@H](F)[C@@](N)(C(=O)O)[C@@H]21 (stereo partly drawn) [Ex. A-14, (1S,2S,3S,5R,6S)-6-((1-(((adamantan-1-yloxy)carbonyl)oxy)ethoxy)carbonyl)-2-amino-3-fluorobicyclo[3.1.0]hexane-2-carboxylic acid]	97%	95%	
N[C@]1(C(=O)O)[C@H]2[C@@H](C[C@@H]1F)[C@@H]2C(=O)OCOC(=O)C12CC3CC(CC(C3)C1)C2 [Ex. A-1, (1S,2S,3S,5R,6S)-6-(((adamantane-1-carbonyl)oxy)methoxy)carbonyl-2-amino-3-fluorobicyclo[3.1.0]hexane-2-carboxylic acid]	99%	100%	
N[C@]1(C(=O)O)[C@H]2[C@@H](C[C@@H]1F)[C@@H]2C(=O)OCOC(=O)OC12CC3CC(CC(C3)C1)C2 [Ex. A-13, (1S,2S,3S,5R,6S)-6-(((((adamantan-1-yloxy)carbonyl)oxy)methoxy)carbonyl)-2-amino-3-fluorobicyclo[3.1.0]hexane-2-carboxylic acid]	93%	93%	
Cl.NCCCC[C@H](N)C(=O)N[C@]1(C(=O)O)[C@H]2[C@@H](C[C@@H]1F)[C@@H]2C(=O)O [Ex. D-5, (1S,2S,3S,5R,6S)-2-((S)-2,6-diaminohexanamide)-3-fluorobicyclo[3.1.0]hexane-2,6-dicarboxylic acid hydrochloride]			25.9%
C[C@H](N)C(=O)N[C@@H](C)C(=O)N[C@]1(C(=O)O)[C@H]2[C@@H](C[C@@H]1F)[C@@H]2C(=O)O.Cl [Ex. D-8, (1S,2S,3S,5R,6S)-2-((S)-2-((S)-2-aminopropanamide)propanamide)-3-fluorobicyclo[3.1.0]hexane-2,6-dicarboxylic acid hydrochloride]			11.7%
CSCC[C@@H](N)C(=O)N[C@]1(C(=O)O)[C@H]2[C@@H](C[C@@H]1F)[C@@H]2C(=O)O.Cl [Ex. D-11, (1S,2S,3S,5R,6S)-2-((R)-2-amino-4-(methylthio)butanamide)-3-fluorobicyclo[3.1.0]hexane-2,6-dicarboxylic acid hydrochloride]			<10%
Cl.N[C@@H](Cc1ccccc1)C(=O)N[C@]1(C(=O)O)[C@H]2[C@@H](C[C@@H]1F)[C@@H]2C(=O)O [Ex. D-9, (1S,2S,3S,5R,6S)-2-((S)-2-amino-3-phenylpropanamide)-3-fluorobicyclo[3.1.0]hexane-2,6-dicarboxylic acid hydrochloride]			<10%
CC(OC(=O)O[C@@H]1C[C@H](C)CC[C@H]1C(C)C)OC(=O)[C@H]1[C@@H]2C[C@H](F)[C@@](N)(C(=O)O)[C@@H]21 (stereo partly drawn) [Ex. A-3, (1S,2S,3S,5R,6S)-2-amino-3-fluoro-6-((1-(((((1R,2S,5R)-2-isopropyl-5-methylcyclohexyl)oxy)carbonyl)oxy)ethoxy)carbonyl)bicyclo[3.1.0]hexane-2-carboxylic acid]	100%	100%	
CC(OC(=O)OC1CCCCC1)OC(=O)[C@H]1[C@@H]2C[C@H](F)[C@@](N)(C(=O)O)[C@@H]21 (stereo partly drawn) [Ex. A-10, (1S,2S,3S,5R,6S)-2-amino-6-((1-(((cyclohexyloxy)carbonyl)oxy)ethoxy)carbonyl)-3-fluorobicyclo[3.1.0]hexane-2-carboxylic acid]	97%	100%	
CC(C)(C)C(=O)OCOC(=O)[C@H]1[C@@H]2C[C@H](F)[C@@](N)(C(=O)O)[C@@H]21 [Ex. A-7, (1S,2S,3S,5R,6S)-2-amino-3-fluoro-6-(((pivaloyloxy)methoxy)carbonyl)bicyclo[3.1.0]hexane-2-carboxylic acid]	99%	100%	
Cl.O=C(O)[C@H]1[C@@H]2C[C@H](F)[C@@](NC(=O)[C@@H]3CCCN3)(C(=O)O)[C@@H]21 [Ex. D-10, (1S,2S,3S,5R,6S)-3-fluoro-2-((S)-pyrrolidine-2-(carboxyamide))bicyclo[3.1.0]hexane-2,6-dicarboxylic acid hydrochloride]			<10%
